Results taken from US20160101106A1, “METHODS FOR TREATING HCV INFECTION” (Inhibikase Therpeutics, Inc., priority 2013, published 2016).
Read-outs that look alike come from different tables or passages of the source.

Assays:
Type in all cases: cell-based, HCV
HCVpp, Genotype 1b = experiment: microbe, parasite or virus in culture
HCVcc, Genotype 2a = experiment: HCVcc inhibitor assay in Huh 7.5 cells, Renilla luciferase readout; conditions: Hepatitis C virus, Huh-7.5.1
Procedure: The secondary screen, for anti-HCV activity utilized HCVcc, a lab-adapted full infection cycle virus, to evaluate the effect of Raf inhibition on viral entry. The HCVcc inhibitor assay uses Huh 7.5 cells and HCVcc containing the luciferase gene generated from pJ6/JFH1-p7Rluc. Briefly cells are plated one day prior to assay. On the day of assay, media is aspirated. The cells are pre-treated with 100 μl of 1X compound. After 1 h pretreatment, compound containing media is aspirated, HCVcc diluted 1x compound is added to each well. Toxicity plates receive only the test compound in tissue culture medium. […] Compound cytotoxicity is assessed by MTS (CellTiter® 96 Reagent, Promega, Madison Wis.) dye reduction. The % reduction in viral entry is determined and reported. […]
The plasmids carrying HCV J6/JFH1 genome, or chimeric mCon1/JFH1 or mH77/JFH1 genome and Rluc reporter gene were kindly provided by Dr. Charles Rice at Rockefeller University. […] HCVcc infectivity was determined by TCID50 assay. […] The number of HCV positive cells was counted. The TCID50 was calculated according to the Reed and Muench method.
The format of the test plate has been standardized by SOUTHERN. […] Samples were evaluated for antiviral efficacy with triplicate measurements using 6 concentrations at half-log (or other) dilutions in order to determine EC50 values and cellular cytotoxicity, if detectable. […]

HCVcc GT2a = experiment: Synergistic antiviral potency against HCVcc (AZ-628 with direct-acting antivirals); conditions: for EC50: read-out: EC50 alone
Procedure: The tested RAF inhibitors were evaluated for an ability to synergize with other current, late stage or marketed direct-acting antivirus (DAAs).

[1] = Genotype 1b, luciferase tagged HCV GT-1b pseudotyped virus, Huh 7.5.1, ≧80% confluent cells, MOI 0.02, read-out: EC50

Cc1ccc(NC(=O)c2cccc(C(C)(C)C#N)c2)cc1Nc1ccc2ncn(C)c(=O)c2c1 [AZ-628]
EC50 (HCVpp, Genotype 1b; Hepatitis C virus, Huh-7.5.1): 420 nM
EC50 (HCVcc, Genotype 2a): 120 nM
inhibition at 0.025 µM (HCVcc GT2a; Hepatitis C virus, GT2A, IkT-064 25 nM, GS-7977 0 nm): 0%
inhibition at 0.05 µM (HCVcc GT2a; Hepatitis C virus, GT2A, IkT-064 50 nM, GS-7977 0 nm): 0%
inhibition at 0.1 µM (HCVcc GT2a; Hepatitis C virus, GT2A, IkT-064 100 nM, GS-7977 0 nm): 0%
inhibition at 0.2 µM (HCVcc GT2a; Hepatitis C virus, GT2A, IkT-064 200 nM, GS-7977 0 nm): 5.15%
inhibition at 0.4 µM (HCVcc GT2a; Hepatitis C virus, GT2A, IkT-064 400 nM, GS-7977 0 nm): 73.4%
EC50 (HCVcc GT2a; Hepatitis C virus): 300 nM
% antiviral inhibition (HCVcc GT2a; IkT-064 25 nM, BMS-790052 0 pM): 2.83%
% antiviral inhibition (HCVcc GT2a; IkT-064 200 nM, BMS-790052 0 pM): 17.39%
% antiviral inhibition (HCVcc GT2a; IkT-064 400 nM, BMS-790052 0 pM): 74.25%

COC(=O)N[C@H](C(=O)N1CCC[C@H]1c1ncc(-c2ccc(-c3ccc(-c4cnc([C@@H]5CCCN5C(=O)[C@@H](NC(=O)OC)C(C)C)[nH]4)cc3)cc2)[nH]1)C(C)C [BMS-790052]
EC50 (HCVcc GT2a; Hepatitis C virus, Genotype 2a, single drug): 0.1 nM
% antiviral inhibition (HCVcc GT2a; IkT-064 0 nM, BMS-790052 0.781 pM): 0%
% antiviral inhibition (HCVcc GT2a; IkT-064 0 nM, BMS-790052 1.563 pM): 0%
% antiviral inhibition (HCVcc GT2a; IkT-064 0 nM, BMS-790052 3.125 pM): 8.7%
% antiviral inhibition (HCVcc GT2a; IkT-064 0 nM, BMS-790052 6.25 pM): 8.72%
% antiviral inhibition (HCVcc GT2a; IkT-064 0 nM, BMS-790052 12.5 pM): 17.27%
% antiviral inhibition (HCVcc GT2a; IkT-064 0 nM, BMS-790052 25 pM): 19.54%
% antiviral inhibition (HCVcc GT2a; IkT-064 0 nM, BMS-790052 50 pM): 33.86%
% antiviral inhibition (HCVcc GT2a; IkT-064 0 nM, BMS-790052 100 pM): 59.54%

CC(C)OC(=O)[C@H](C)N[P@](=O)(OC[C@H]1O[C@@H](n2ccc(=O)[nH]c2=O)[C@](C)(F)[C@@H]1O)Oc1ccccc1 [GS-7977]
EC50 (HCVcc GT2a; Genotype 2a, single drug): 250 nM
Fold Synergy (HCVcc GT2a; Genotype 2a, with AZ-628): 5
% antiviral inhibition (HCVcc GT2a; IkT-064 0 nM, GS-7977 1.563 nm): 0%
% antiviral inhibition (HCVcc GT2a; IkT-064 0 nM, GS-7977 3.125 nm): 0%
% antiviral inhibition (HCVcc GT2a; IkT-064 0 nM, GS-7977 6.25 nm): 0%
% antiviral inhibition (HCVcc GT2a; IkT-064 0 nM, GS-7977 12.5 nm): 0%
% antiviral inhibition (HCVcc GT2a; IkT-064 0 nM, GS-7977 25 nm): 2.65%
% antiviral inhibition (HCVcc GT2a; IkT-064 0 nM, GS-7977 50 nm): 11.54%
% antiviral inhibition (HCVcc GT2a; IkT-064 0 nM, GS-7977 100 nm): 21.51%
% antiviral inhibition (HCVcc GT2a; IkT-064 0 nM, GS-7977 200 nm): 44.74%

CC(C)(C)c1nc(-c2cccc(NS(=O)(=O)c3c(F)cccc3F)c2F)c(-c2ccnc(N)n2)s1 [GSK2118436/dabrafinib]
EC50 (HCVpp, Genotype 1b; [1]): > 5000 nM

Cn1c(Nc2ccc(C(F)(F)F)cc2)nc2cc(Oc3ccnc(-c4ncc(C(F)(F)F)[nH]4)c3)ccc21 [Raf265]
EC50 (HCVpp, Genotype 1b; Hepatitis C virus, Huh-7.5.1): 890 nM
EC50 (HCVcc, Genotype 2a): 1050 nM

CCCS(=O)(=O)Nc1ccc(F)c(C(=O)c2c[nH]c3ncc(-c4ccc(Cl)cc4)cc23)c1F [Zelboraf/PLX4032]
EC50 (HCVpp, Genotype 1b; [1]): > 5000 nM

CNC(=O)c1cc(Oc2ccc(NC(=O)Nc3ccc(Cl)c(C(F)(F)F)c3)cc2)ccn1 [sorafenib]
EC50 (HCVpp, Genotype 1b; Hepatitis C virus, Huh-7.5.1): 1810 nM
